Data as given in US8378104B2 (OSI Pharmaceuticals, LLC, priority 2010, dated 2013).
pIC50: −log10 of the molar value. Where a name gives a salt, the structure may show the parent alone.

Legend:
TAK1-TAB1 fusion protein = target: T1, TAK1-TAB1 fusion protein (Homo sapiens, UniProt O43318); experiment: TAK1 biochemical assay (AlphaScreen, GST-MAP2K7 substrate); details: TAK1-TAB1 fusion protein, GST-MAP2K7 substrate; read-out: mean TAK1 IC50 (Col. A)
T1 construct: purchased Carna
T1 sequence (O43318 with tags, fused parts or gaps limits assumed): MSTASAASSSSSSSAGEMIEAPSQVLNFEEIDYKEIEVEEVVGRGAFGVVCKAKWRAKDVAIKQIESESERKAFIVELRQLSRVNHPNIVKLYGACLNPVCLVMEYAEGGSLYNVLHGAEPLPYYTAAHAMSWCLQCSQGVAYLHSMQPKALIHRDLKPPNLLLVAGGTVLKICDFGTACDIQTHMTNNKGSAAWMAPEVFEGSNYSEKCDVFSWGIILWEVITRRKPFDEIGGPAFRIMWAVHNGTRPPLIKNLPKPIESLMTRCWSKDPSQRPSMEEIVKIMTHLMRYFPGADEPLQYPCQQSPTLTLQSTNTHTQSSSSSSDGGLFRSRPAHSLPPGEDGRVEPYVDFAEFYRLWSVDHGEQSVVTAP

pJNK in HCT-116 cells = experiment: Phospho-JNK (Thr183/Tyr185) Meso Scale ELISA assay, TNFα-stimulated HCT-116 cells; format: cell-based; details: Homo sapiens, read-out: mean HCT-116 pJNK ELISA IC50 (Col. B)
In short: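 HCT-116 cells in 1% FCS medium were pretreated with compound for 4 hrs at 37° C, then stimulated with TNFα at 10 ng/mL final for 10 minutes. Lysates were taken in ice-cold lysis buffer with phosphatase and protease inhibitors, and phospho-JNK (Thr183/Tyr185) was measured by Meso Scale ELISA.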

p-p38 in HCT-116 cells = experiment: Phospho-p38 Meso Scale ELISA assay, TNFα-stimulated HCT-116 cells; format: cell-based; details: Homo sapiens, read-out: mean HCT-116 p-p38 ELISA IC50 (Col. C)
Method: Detailed below are ELISA assays for pJNK and p38, and a TAK1 biochemical assay. […] In Table 1, Col.
• 1. Plate HCT-116 cells at 25,000 per well in 100 uL in 96 well clear dishes in normal growth medium. Day 2: • 1. Aspirate medium and replace with 90 μl reduced serum growth medium (1% FCS), incubate for 2 hours at 37° C. • 2. Make drugs at 10× in reduced serum medium and add 10 uL per well. • 3. Incubate at 37° C. for 4 hrs. • 4. Bring capture plates to room temperature. • 5. Block with 150 μl Blocking Solution (provided with kit) (600 mg Blocker A into 20 mL 1× Wash Buffer per plate) at room temperature with shaking. • 6. Wash plates 4× with 200 μl 1× wash buffer (10× provided with kit) before transferring lysates. • 7. Dilute TNFα to […] in reduced serum medium (this makes a 10× working stock). • 8. Add 10 μl TNFα to all wells except negative control wells, final concentration is 10 ng/mL. • 9. Incubate at 37° C. for 10 minutes. • 10. Remove medium by flicking into sink • 11. Wash cells with 100 uL ice cold PBS. • 12. Remove PBS by flicking into sink and patting on paper towels. • 13. Lyse cells in 50 μl ice cold 1× Complete Lysis Buffer plus Phosphatase and Protease inhibitors (all provided with kit) (10 mL Tris Lysis Buffer+200 μl Protease inhibitor solution+100 μl Phosphatase inhibitor I+100 μl Phosphatase inhibitor II). • 14. Incubate with shaking at 4° C. for 30 minutes. • 15. Transfer 45 μl to capture plate, cover with adhesive cover, and incubate at 4° C. over night with shaking. • Day 3: • 1. Wash plates 4× with 200 μl 1× wash buffer (10× provided with kit). • 2. […] Incubate at room temperature with shaking for 1 hour. • 4. Wash 4× with 200 μl 1× Wash Buffer. • 5. […] Read on Sector Imager. Phospho-p38 Meso Scale ELISA Assay Day 1: • 1. Plate HCT-116 cells at 25,000 per well in 100 uL in 96 well clear dishes in normal growth medium. zday 2: • 1. Aspirate medium and replace with 90 μl reduced serum growth medium (1% FCS), incubate for 2 hours at 37° C. • 2. Make drugs at 10× in reduced serum medium and add 10 uL per well. • 3. Incubate at 37° C. for 4 hrs. • 4. Bring capture plates to room temperature. • 5. Block with 150 μl Blocking Solution (provided with kit) (600 mg Blocker A into 20 mL 1× Wash Buffer per plate) at room temperature with shaking. • 6. Wash plates 4× with 200 μl 1× wash buffer (10× provided with kit) before transferring lysates. • 7. Dilute TNFα to […] in reduced serum medium (this makes a 10× working stock). • 8. Add 10 μl TNFα to all wells except negative control wells, final concentration is 10 ng/mL. • 9. Incubate at 37° C. for 10 minutes. • 10. Remove medium by flicking into sink • 11. Wash cells with 100 uL ice cold PBS. • 12. Remove PBS by flicking into sink and patting on paper towels. • 13. Lyse cells in 50 μl ice cold 1× Complete Lysis Buffer plus phosphatase and protease inhibitors (all provided with kit) (10 mL Tris Lysis Buffer+200 μl Protease inhibitor solution+100 μl Phosphatase inhibitor I+100 μl Phosphatase inhibitor II). • 14. Incubate with shaking at 4° C. for 30 minutes. • 15. Dilute lysates before transferring to capture plate with 100 μl Complete p38 Lysate • Dilution Buffer (provided with kit) (10 mL of Diluent 20±200 μl Protease inhibitor solution+100 μl Phosphatase inhibitor I+100 μl Phosphatase inhibitor II). • 16. Transfer 50 μl of diluted lysates to capture plate, cover with adhesive cover, and incubate at 4° C. over night with shaking. Day 3: • 1. Wash plates 4× with 200 μl 1× wash buffer (10× provided with kit). • 2. […] Incubate at room temperature with shaking for 1 hour. • 4. Wash 4× with 200 μl 1× Wash Buffer. • 5. […] Read on Sector Imager. TAK1 Biochemical Assay

In the case of `CC(C)n1cc(-c2cnc(N)c3oc(-c4cccc5cnccc45)cc23)cn1` [Example 60, 2-(isoquinolin-5-yl)-4-[1-(propan-2-yl)-1H-pyrazol-4-yl]furo[2,3-c]pyridin-7-amine], the pIC50 (TAK1-TAB1 fusion protein) was 6.00 to 7.00, the pIC50 (pJNK in HCT-116 cells) was 6.00 to 7.00 and the pIC50 (p-p38 in HCT-116 cells) was 6.00 to 7.00.
Work on `CC(=O)N1CCC(n2cc(-c3cnc(N)c4oc(-c5cccc6nn(C)cc56)cc34)cn2)CC1` [Example 192, 1-(4-{4-[7-amino-2-(2-methyl-2H-indazol-4-yl)furo[2,3-c]pyridin-4-yl]-1H-pyrazol-1-yl}piperidin-1-yl)ethanone] yielded a pIC50 (TAK1-TAB1 fusion protein) of 5.00 to 6.00, a pIC50 (pJNK in HCT-116 cells) of 5.00 to 6.00 and a pIC50 (p-p38 in HCT-116 cells) of 5.00 to 6.00.
`CSc1ccc(-c2cc3c(-c4cnn(C5CCN(C(C)=O)CC5)c4)cnc(N)c3o2)cc1` [Example 113, 1-[4-(4-{7-amino-2-[4-(methylsulfanyl)phenyl]furo[2,3-c]pyridin-4-yl}-1H-pyrazol-1-yl)piperidin-1-yl]ethanone] was tested, and the pIC50 (TAK1-TAB1 fusion protein) was < 5.00, the pIC50 (pJNK in HCT-116 cells) was 5.00 to 6.00 and the pIC50 (p-p38 in HCT-116 cells) was 5.00 to 6.00.
`CC(=O)N1CCC(n2cc(-c3cnc(N)c4oc(-c5ccc6[nH]ncc6c5)cc34)cn2)CC1` [Example 94, 1-(4-{4-[7-amino-2-(1H-indazol-5-yl)furo[2,3-c]pyridin-4-yl]-1H-pyrazol-1-yl}piperidin-1-yl)ethanone] gave a pIC50 (TAK1-TAB1 fusion protein) of 6.00 to 7.00, a pIC50 (pJNK in HCT-116 cells) of 6.00 to 7.00 and a pIC50 (p-p38 in HCT-116 cells) of 5.00 to 6.00.
In the case of `CC(=O)N1CCC(n2cc(-c3cnc(N)c4oc(-c5ccc6ncn(C)c6c5)cc34)cn2)CC1` [Example 111, 1-(4-{4-[7-amino-2-(1-methyl-1H-benzimidazol-6-yl)furo[2,3-c]pyridin-4-yl]-1H-pyrazol-1-yl}piperidin-1-yl)ethanone], the pIC50 (TAK1-TAB1 fusion protein) was 6.00 to 7.00, the pIC50 (pJNK in HCT-116 cells) was 5.00 to 6.00 and the pIC50 (p-p38 in HCT-116 cells) was < 5.00.
`COc1nn([C@H]2CC[C@@H](O)CC2)cc1-c1cnc(N)c2oc(-c3csc4cnccc34)cc12` [Example 303, 4-[4-(7-amino-2-thieno[2,3-c]pyridin-3-yl-furo[2,3-c]pyridin-4-yl)-3-methoxy-pyrazol-1-yl]-cyclohexanol] gave a pIC50 (TAK1-TAB1 fusion protein) of 6.00 to 7.00, a pIC50 (pJNK in HCT-116 cells) of 6.00 to 7.00 and a pIC50 (p-p38 in HCT-116 cells) of 5.00 to 6.00.
Compound `CC(=O)N1CCC(n2cc(-c3cnc(N)c4oc(-c5ccc6sccc6c5)cc34)cn2)CC1` [Example 106, 1-(4-{4-[7-amino-2-(1-benzothiophen-5-yl)furo[2,3-c]pyridin-4-yl]-1H-pyrazol-1-yl}piperidin-1-yl)ethanone] has a pIC50 (TAK1-TAB1 fusion protein) of 6.00 to 7.00, a pIC50 (pJNK in HCT-116 cells) of 6.00 to 7.00 and a pIC50 (p-p38 in HCT-116 cells) of 6.00 to 7.00.
In the case of `COc1cc(-c2cc3c(-c4cnn(C5CCN(C(C)=O)CC5)c4)cnc(N)c3o2)ccc1O` [Example 131, 1-(4-{4-[7-amino-2-(4-hydroxy-3-methoxyphenyl)furo[2,3-c]pyridin-4-yl]-1H-pyrazol-1-yl}piperidin-1-yl)ethanone], the pIC50 (TAK1-TAB1 fusion protein) was 6.00 to 7.00, the pIC50 (pJNK in HCT-116 cells) was 6.00 to 7.00 and the pIC50 (p-p38 in HCT-116 cells) was 5.00 to 6.00.
`CC(=O)N1CCC(n2cc(-c3cnc(N)c4oc(-c5cnn(Cc6cccnc6)c5)cc34)cn2)CC1` [Example 148, 1-[4-(4-{7-amino-2-[1-(pyridin-3-ylmethyl)-1H-pyrazol-4-yl]furo[2,3-c]pyridin-4-yl}-1H-pyrazol-1-yl)piperidin-1-yl]ethanone] was tested, and the pIC50 (TAK1-TAB1 fusion protein) was 5.00 to 6.00, the pIC50 (pJNK in HCT-116 cells) was < 5.00 and the pIC50 (p-p38 in HCT-116 cells) was < 5.00.
With `Nc1ncc(-c2cn[nH]c2)c2cc(-c3c[nH]c4cnccc34)oc12` [Example 87, 4-(1H-pyrazol-4-yl)-2-(1H-pyrrolo[2,3-c]pyridin-3-yl)furo[2,3-c]pyridin-7-amine trifluoroacetic acid salt] the pIC50 (TAK1-TAB1 fusion protein) was > 7.00, the pIC50 (pJNK in HCT-116 cells) was 6.00 to 7.00 and the pIC50 (p-p38 in HCT-116 cells) was 5.00 to 6.00.
For `CC(C)(C)OC(=O)N1CCC(n2cc(-c3cnc(N)c4oc(-c5csc6cnccc56)cc34)cn2)CC1` [Example 300, 4-[4-(7-amino-2-thieno[2,3-c]pyridin-3-yl-furo[2,3-c]pyridin-4-yl)-pyrazol-1-yl]piperidine-1-carboxylic acid tert-butyl ester], the pIC50 (TAK1-TAB1 fusion protein) was 6.00 to 7.00, the pIC50 (pJNK in HCT-116 cells) was 6.00 to 7.00 and the pIC50 (p-p38 in HCT-116 cells) was 6.00 to 7.00.
`Nc1ncc(-c2cnn(C3CCN(C(=O)C4CC4)CC3)c2)c2cc(-c3cccc4cnccc34)oc12` [Example 52, (4-{4-[7-amino-2-(isoquinolin-5-yl)furo[2,3-c]pyridin-4-yl]-1H-pyrazol-1-yl}piperidin-1-yl)(cyclopropyl)methanone] was tested, and the pIC50 (TAK1-TAB1 fusion protein) was 6.00 to 7.00, the pIC50 (pJNK in HCT-116 cells) was 6.00 to 7.00 and the pIC50 (p-p38 in HCT-116 cells) was 6.00 to 7.00.
`CC(=O)N1CCC(n2cc(-c3cnc(N)c4oc(-c5ccc(O)cc5C)cc34)cn2)CC1` [Example 135, 1-(4-{4-[7-amino-2-(4-hydroxy-2-methylphenyl)furo[2,3-c]pyridin-4-yl]-1H-pyrazol-1-yl}piperidin-1-yl)ethanone] was tested, and the pIC50 (TAK1-TAB1 fusion protein) was 6.00 to 7.00, the pIC50 (pJNK in HCT-116 cells) was 6.00 to 7.00 and the pIC50 (p-p38 in HCT-116 cells) was 6.00 to 7.00.
For `CC(=O)N1CCC(n2cc(-c3cnc(N)c4oc(-c5csc6cnccc56)cc34)cn2)CC1` [Example 189, 1-(4-{4-[7-amino-2-(thieno[2,3-c]pyridin-3-yl)furo[2,3-c]pyridin-4-yl]-1H-pyrazol-1-yl}piperidin-1-yl)ethanone], the pIC50 (TAK1-TAB1 fusion protein) was > 7.00, the pIC50 (pJNK in HCT-116 cells) was > 7.00 and the pIC50 (p-p38 in HCT-116 cells) was 6.00 to 7.00.
`CSc1cccc(-c2cc3c(-c4cnn(C5CCN(C(C)=O)CC5)c4)cnc(N)c3o2)c1` [Example 133, 1-[4-(4-{7-amino-2-[3-(methylsulfanyl)phenyl]furo[2,3-c]pyridin-4-yl}-1H-pyrazol-1-yl)piperidin-1-yl]ethanone] gave a pIC50 (TAK1-TAB1 fusion protein) of 5.00 to 6.00, a pIC50 (pJNK in HCT-116 cells) of 5.00 to 6.00 and a pIC50 (p-p38 in HCT-116 cells) of 5.00 to 6.00.
Compound `CCSc1ccccc1-c1cc2c(-c3cnn(C4CCN(C(C)=O)CC4)c3)cnc(N)c2o1` [Example 217] has a pIC50 (TAK1-TAB1 fusion protein) of 6.00 to 7.00, a pIC50 (pJNK in HCT-116 cells) of 6.00 to 7.00 and a pIC50 (p-p38 in HCT-116 cells) of 6.00 to 7.00.
Work on `CC(=O)N1CCC(n2cc(-c3cnc(N)c4oc(-c5ccc(O)c(F)c5)cc34)cn2)CC1` [Example 123, 1-(4-{4-[7-amino-2-(3-fluoro-4-hydroxyphenyl)furo[2,3-c]pyridin-4-yl]-1H-pyrazol-1-yl}piperidin-1-yl)ethanone] yielded a pIC50 (TAK1-TAB1 fusion protein) of 6.00 to 7.00, a pIC50 (pJNK in HCT-116 cells) of 5.00 to 6.00 and a pIC50 (p-p38 in HCT-116 cells) of 5.00 to 6.00.
`Nc1ncc(-c2cnn(C3CCNCC3)c2)c2cc(-c3cccc4cnsc34)oc12` [Example 323, 2-benzo[d]isothiazol-7-yl-4-(1-piperidin-4-yl-1H-pyrazol-4-yl)-furo[2,3-c]pyridin-7-ylamine] was tested, and the pIC50 (TAK1-TAB1 fusion protein) was > 7.00, the pIC50 (pJNK in HCT-116 cells) was 5.00 to 6.00 and the pIC50 (p-p38 in HCT-116 cells) was 6.00 to 7.00.
